# Data taken from patent US11141419B1, “Use of iminosugars as prophylactic and therapy against COVID-19 / SARS-CoV-2” (priority 2020, dated 2021).
# Where two headings read alike, the source gives them in different places.
# Experiments:
# SARS-CoV-2/WA/1 virus = experiment: Plaque reduction assay in Vero E6 cells; type: cell-based; conditions: Vero E6 cells pre-treated and overlaid with iminosugar, 40 PFU, 48 hrs, duplicate wells, read-out: IC50 against SARS-CoV-2 (plaque formation)
# SARS-CoV-2 virus = type: cell-based; conditions: Vero E6, MOI 0.01, 100 μM iminosugar, 24 hrs, supernatant
# [1] = tested on: Lentiviruses expressing SARS-CoV-2 spike glycoprotein (Wuhan isolate, P.1, B.1.1.7, B.1.351); type: cell-based; conditions: 100 μM iminosugar, 24 hrs pre-treatment, luciferase after 48 hrs
# SARS-CoV-2 = type: cell-based; conditions: Huh7.0, lower MOI (0.1), 250 μM, three days
# Huh7.0 human cells = experiment: Cell viability (MTS assay) of uninfected Huh7.0 cells; conditions: various concentrations, three days
# COVID-19 = conditions: repurposed drug regimens; cited from earlier work
# [2] = Severe acute respiratory syndrome coronavirus 2, Vero C1008
SMILES,IC50 (SARS-CoV-2/WA/1 virus; [2]) [µM],SARS-CoV-2 viral RNA production / viral genome copy number (N1 gene PCR) (SARS-CoV-2 virus),pseudotyped SARS-CoV-2 viral entry into human 293t-hACE2 cells [1],effect on hospitalized COVID-19 patients (COVID-19),further results
"C[C@H]1O[C@H](O[C@H]2[C@H](O)[C@@H](O)[C@@H](O[C@H]3[C@H](O)[C@@H](O)C(O)O[C@@H]3CO)O[C@@H]2CO)[C@H](O)[C@@H](O)[C@@H]1N[C@H]1C=C(CO)[C@@H](O)[C@H](O)[C@H]1O (some centres unmarked) [Acarbose, acarbose]",105,–,–,–,–
"O[C@H]1[C@H](O)[C@@H](O)CN2CC[C@H](O)[C@H]12 [Castanospermine, castanospermine]",–,significantly reduced,significant decrease,–,IC50 (SARS-CoV-2/WA/1 virus): 91 µM
"OCCN1C[C@H](O)[C@@H](O)[C@H](O)[C@H]1CO [Miglitol, miglitol]",135,significantly reduced,significant decrease,–,cell survival (SARS-CoV-2): completely restored; toxicity to human cells (Huh7.0 human cells): without toxicity
CCN(CCO)CCCC(C)Nc1ccnc2cc(Cl)ccc12 (centres unmarked) [hydroxychloroquine],–,–,–,little or no effect,–
Cc1cccc(C)c1OCC(=O)N[C@@H](Cc1ccccc1)[C@@H](O)C[C@H](Cc1ccccc1)NC(=O)[C@H](C(C)C)N1CCCNC1=O [lopinavir],–,–,–,little or no effect,–
